The numbers were not newly measured in patent US20140255503A1, “PHARMACEUTICAL COMPOSITION OF OMEPRAZOLE” (LABORATORIOS DEL DR. ESTEVE, S.A., priority 2011, published 2014), which cites them from elsewhere.

Assay in series [1]: not given
This is another data set of the same source.

With `COc1ccc2[nH]c([S+]([O-])Cc3ncc(C)c(OC)c3C)nc2c1` (stereo not shown) [Omeprazole, 5-methoxy-2-(4-methoxy-3,5-dimethylpyridin-2-ylmethylsulfinyl)-1H-benzimidazole], the Solubility in acetone entry (acetone) is reported as “slightly soluble”. The Solubility in ethanol entry (ethanol) is “freely soluble”. For the setting “isopropanol”, the Solubility in isopropanol result is “slightly soluble”. For the setting “methanol”, the Solubility in methanol entry is “freely soluble”. Also, the Solubility in water entry (water) is reported as “very slightly soluble”. In series [1] (acid media), the “Stability in acid media” value was “rapidly degraded”. In addition, in series [1] (alkaline conditions), the “Stability under alkaline conditions” value was “acceptable stability”.
